{"source": "patent US20100158866A1", "about": "“PREDICTION OF HCV TREATMENT RESPONSE” (priority 2008, published 2010)", "key": {"HCV genotype 1 [1]": {"test_system": "HCV genotype 1", "experiment": "Phase 2A clinical trial of RO4588161 with Pegasys with or without ribavirin: HCV RNA viral load and viral response (Roche COBAS TaqMan HCV Test)", "assay_type": "in vivo, human", "details": "for mean change in viral concentrations (HCV RNA) from baseline at week 4: 4 weeks", "excerpt": "(§1) This was a phase 2A, multi-center, randomized, double-blinded (RO4588161 and ribavirin were double-blinded and Pegasys was open labeled), active-controlled, with a parallel-group study which is ongoing. A screening period (time from the first screening assessment to the first administration of test drug) of 35 days preceded the treatment portion of the trial (FIG. 1). The HCV genotype and HCV RNA titer of each patient was confirmed during the screening period and only treatment-naïve patients with HCV genotype-1 and HCV RNA titer […] were eligible for enrollment.\nOne hundred and seven male and female patients between 18 and 66 years of age were enrolled into the study. Patients were randomized into four treatment groups: • Group A/Dual 1500 [RO4588161 1500 mg oral, twice daily+Pegasys 180 μg subcutaneous, once weeky] for 4 weeks-21 patients, • Group B/Dual 3000 [RO4588161 3000 mg oral, twice daily+Pegasys 180 μg subcutaneous, once weekly] for 4 weeks-34 patients, • Group C/Triple 1500 [RO4588161 1500 mg oral, twice daily+Pegasys 180 μg subcutaneous, once weekly+ribavirin 1000 mg (<75 kg) or 1200 mg […] oral daily] for 4 weeks-31 patients or • Group D/standard of care (SOC) [Pegasys 180 μg subcutaneous, once weekly+ribavirin 1000 mg (<75 kg) or 1200 mg (≧75 kg) oral daily] for 4 weeks-21 patients\nPatients meeting all eligibility criteria were randomized to receive RO4588161 in combination with Pegasys with or without ribavirin for 4 weeks or to SOC.\nAll patients who received at least one dose of study medication would continue to receive open label Pegasys 180 μg sc qw and ribavirin 1000 mg (<75 kg) or 1200 mg (≧75 kg) po qd to complete a total treatment period of 48 weeks.\nRandomization was stratified by the PK subcohort (sparse PK versus intensive PK) in a 2:3:3:2 ratio into the following treatment groups (Group A/Dual 1500˜20, Group B/Dual 3000˜30, Group C/Triple 1500˜30, Group D/SOC˜20).\nAll patients were to have a safety follow up visit at week 8, 4 weeks after the last dose of the experimental drug combination. Patients were to have this 4 week safety follow up visit during their treatment with the standard of care therapy. Patients who have completed a full 48-week course of therapy were followed for 24 weeks post treatment completion.\nPharmacodynamic analysis included the assessment of serum viral load, and viral response at individual clinical visits and an assessment of antiviral resistance development with RO4588161 given in combination with Pegasys with or without ribavirin in treatment naïve patients with chronic HCV genotype 1 virus infection. Viral response was defined as the percentage of patients with undetectable HCV RNA as measured by the Roche COBAS TaqMan HCV Test (<15 IU/mL). Pharmacodynamic data were presented by listings, summary statistics (including means, medians, standard errors, confidence intervals for means, ranges, coefficients of variation, proportions of patients with response and confidence intervals for proportions) and plots of means over time."}, "[2]": {"experiment": "Phase 2A clinical trial of RO4588161: premature withdrawal for safety reasons", "assay_type": "in vivo, human", "excerpt": "as §1\nOne hundred and seven male and female patients between 18 and 66 years of age were enrolled into the study. Patients were randomized into four treatment groups: • Group A/Dual 1500 [RO4588161 1500 mg oral, twice daily+Pegasys 180 μg subcutaneous, once weeky] for 4 weeks-21 patients, • Group B/Dual 3000 [RO4588161 3000 mg oral, twice daily+Pegasys 180 μg subcutaneous, once weekly] for 4 weeks-34 patients, • Group C/Triple 1500 [RO4588161 1500 mg oral, twice daily+Pegasys 180 μg subcutaneous, once weekly+ribavirin 1000 mg (<75 kg) or 1200 mg […] oral daily] for 4 weeks-31 patients or • Group D/standard of care (SOC) [Pegasys 180 μg subcutaneous, once weekly+ribavirin 1000 mg (<75 kg) or 1200 mg (≧75 kg) oral daily] for 4 weeks-21 patients […]"}, "HCV genotype 1 [3]": {"test_system": "HCV genotype 1", "experiment": "Phase II clinical trial of RO5024048 with Pegasys and ribavirin: plasma HCV RNA", "assay_type": "in vivo, human", "excerpt": "Twenty-five (25) patients per Cohort of RO5024048 were enrolled. Twenty (20) patients per cohort received RO5024048 in combination with standard of care (SOC) and five (5) patients per cohort were randomized to receive SOC with a RO5024048 placebo. Patients were screened up to 56 days prior to enrollment. On Day −1, patients visited the clinic for pre-dose assessments. On Day 1, patients received an oral dose of study drug RO5024048 or placebo and Pegasys/ribovarin in the morning with a light meal and at least 240 mL of water.\nA majority of dosing occurred on an outpatient basis. Periodically, patients returned to the clinic for study assessments. Early morning on Days 7, 14, 21, and 28, patients were asked to report to the clinic after an overnight fast. Patients received their RO5024048/placebo in combination with Pegasys and Ribovarin with a light meal and 240 mL of water in the morning in the clinic. Patients were followed through Day 56 (28 days after dosing is completed).\nAfter completing four weeks of the combination-dosing regimen followed by at least 4 weeks of SOC dosing (RO5024048 washout), all patients were eligible to receive up to 40 weeks, depending upon genotype, of open label standard of care (SOC) dosing with Pegasys plus ribavirin. Genotype 2 or 3 subjects enrolling in Cohort 4 will receive a total of 24 weeks of Pegasys plus ribovarin. An overview of the study design is outlined in Table 1."}, "HCV": {"test_system": "HCV", "details": "cited from earlier work"}, "[4]": {"details": "human, in vivo; cited from earlier work"}}, "data": [{"smiles": "CC(C)C(=O)OC[C@@]1(N=[N+]=[N-])O[C@@H](n2ccc(N)nc2=O)[C@H](OC(=O)C(C)C)[C@@H]1OC(=O)C(C)C", "note": "[RO4588161, Isobutyric acid (2R,3S,4R,5R)-5-(4-amino-2-oxo-2H-pyrimidin-1-yl)-2-azido-3,4-bis-isobutyryloxy-tetrahydro-furan-2-ylmethyl ester]", "values": [{"measurement": "mean change in viral concentrations (HCV RNA) from baseline at week 4", "setting": "HCV genotype 1 [1]; Dual 1500: RO4588161 1500 mg oral twice daily + Pegasys 180 μg sc once weekly", "result": "−3.6", "unit": "log10 IU/mL"}, {"measurement": "difference in mean change in viral concentrations", "setting": "HCV genotype 1 [1]; Dual 3000 vs Dual 1500, week 4, printed as 'minus 0.9'", "result": 0.9, "unit": "log10 IU/mL"}, {"measurement": "mean change in viral concentrations (HCV RNA) from baseline at week 4", "setting": "HCV genotype 1 [1]; Triple 1500: RO4588161 1500 mg oral twice daily + Pegasys 180 μg sc once weekly + ribavirin 1000/1200 mg oral daily", "result": "−5.2", "unit": "log10 IU/mL"}, {"measurement": "patients achieving RVR4 (undetectable HCV RNA at four weeks of treatment)", "setting": "HCV genotype 1 [1]; Triple 1500 group (N=31)", "result": "23 out of the 31"}, {"measurement": "patients achieving sustained virological response (SVR) at 24 weeks post treatment completion", "setting": "HCV genotype 1 [1]; Triple 1500 group, of the thirteen patients undetectable at two weeks", "result": "Eleven"}, {"measurement": "antiviral effect, non-overlapping 95% confidence intervals", "setting": "HCV genotype 1 [1]; Triple 1500 over Dual 1500 and SOC", "result": "superior antiviral effect"}, {"measurement": "difference in mean change in viral concentrations", "setting": "HCV genotype 1 [1]; Triple 1500 vs Dual 1500, week 4, printed as 'minus 1.6'", "result": 1.6, "unit": "log10 IU/mL"}, {"measurement": "difference in mean change in viral concentrations", "setting": "HCV genotype 1 [1]; Triple 1500 vs SOC, week 4, printed as 'minus 2.8'", "result": 2.8, "unit": "log10 IU/mL"}, {"measurement": "decrease in the mean HCV RNA (IU/mL) from baseline at week 4", "setting": "HCV genotype 1 [1]; all RO4588161 containing groups (Dual 1500, Dual 3000, Triple 1500), 4 weeks treatment, treatment-naive HCV genotype-1 patients", "result": "≥ 3.6", "unit": "log10"}, {"measurement": "earliest assessment at which declines in HCV RNA were observed, following the first dose", "setting": "HCV genotype 1 [1]; first assessment", "result": 72, "unit": "h"}, {"measurement": "plasma viral load following treatment", "setting": "HCV genotype 1 [1]; treatment with RO4588161, Pegasys and ribavirin", "result": "Dose- and time-dependent decreases"}, {"measurement": "patients who prematurely withdrew for safety reasons from the drug", "setting": "[2]; among the 104 evaluable patients", "result": 43, "unit": "patients"}]}, {"smiles": "CC(C)C(=O)OC[C@H]1O[C@@H](n2ccc(N)nc2=O)[C@](C)(F)[C@@H]1OC(=O)C(C)C", "note": "[RO5024048, Isobutyric acid (2R,3R,4R,5R)-5-(4-amino-2-oxo-2H-pyrimidin-1-yl)-4-fluoro-3-isobutyryloxy-4-methyl-tetrahydro-furan-2-ylmethyl ester]", "values": [{"measurement": "whether HCV RNA could be detected at Week 8", "setting": "HCV genotype 1 [3]; 1500 mg RO5024048 + Pegasys + ribavirin, patients not undetectable until day 17 (FIG. 4) or day 28 (FIG. 5)", "result": "mixed"}, {"measurement": "HCV RNA status on day 56 (Week 8)", "setting": "HCV genotype 1 [3]; 1500 mg RO5024048 + Pegasys + ribavirin, patients with undetectable HCV RNA at 14 days of treatment (FIG. 3)", "result": "all HCV RNA negative"}, {"measurement": "decreases in plasma viral load", "setting": "HCV genotype 1 [3]; four-week treatment, 1500 mg RO5024048 twice daily with SOC dosing of Pegasys and ribavirin, compared with other dose levels", "result": "most notable decreases"}]}, {"smiles": "NC(=O)c1ncn([C@@H]2O[C@H](CO)[C@@H](O)[C@H]2O)n1", "note": "[ribavirin, 1-((2R,3R,4S,5R)-3,4-Dihydroxy-5-hydroxymethyl-tetrahydro-furan-2-yl)-1H-[1,2,4]triazole-3-carboxylic acid amide]", "values": [{"measurement": "patients in whom serum amino transferase levels are reduced to normal", "setting": "HCV; monotherapy", "result": "40 % of patients"}, {"measurement": "effect on serum levels of HCV-RNA", "setting": "HCV; ribavirin monotherapy", "result": "does not lower"}, {"measurement": "patients who prematurely withdrew for safety reasons from the drug", "setting": "[2]; both, human, in vivo, 4 weeks", "result": 5, "unit": "patients"}, {"measurement": "patients with hemolytic anemia requiring dose reduction or discontinuation of ribavirin therapy", "setting": "[4]", "result": "10-20 % of patients"}]}]}
